Results reported in patent US6849632B2, “Heteroaryl alkyl piperazine derivatives” (CV Therapeutics, Inc., priority 2000, dated 2005).
pIC50: −log10 of the molar value. Read-outs that look alike come from different tables or passages of the source.

Columns and labels:
[1] = Metabolic stability, incubation with human liver S-9 fractions; assay type: in vitro ADME; details: for Liver S9 Stability Factor: % parent remaining after 30 min at 37 C with human liver S9, divided by average % ranolazine remaining (57%)
Experimental: Metabolic Stability: As a measure of metabolic stability the compounds of this invention were incubated with human liver S-9 microsomal fractions. After, 30 minutes at 37 C, the amount of parent drug remaining was determined using LC-mass spec. The response factors for each compound was determined by establishing a standard curve and using an internal standard during the analysis of the samples. An average of five experiments for percentage of ranolazine remaining at the 30 minute time point is 57%. The compounds of this invention were assayed as described in the protocol below and the percentage of parent remaining was divided by the average % of ranolazine remaining (57%) affording a metabolic stability factor. A compound with a stability number greater than 1.2 has a better stability than ranolazine in the liver S-9 assay. A compound with a stability number between 1.2 and 0.8 has an equivalent stability in the liver S-9 assay.
The purpose of this experiment is to compare the percentages remaining for compounds of this invention with the percentage remaining for ranolazine after 30 minutes of incubation with human liver S9 fractions.
The following reagents were used; Potassium phosphate, 0.5M pH 7.4 (incubation buffer), kept at room temperature; 0.05M MgCl^2 kept at 4° C.; β-Nicotinamide adenine dinucleotide phosphate, tetrasodium salt, reduced form (NADPH), 0.02M solution in water (˜16.6 mg/mL) from Sigma Lot #79H7044 prepared on day of use. 1 mM of ranolazine or Compounds 43, 45, 47, 52, 70, 74, 76, 78, and 80 in ACN further diluted to obtain 100 μM in 10% ACN; Human S9 stock: 20 mg/mL from Gentest.
Incubation mixtures were prepared as follows:
Combine all components with incubation buffer and re-pipette 200 μL/tube+25 μL of the compound being tested along with 25 μL of S-9.
After 5 min of pre-incubation at 37° C., at 0 and 30 min after starting the reaction, a 50 μl aliquot of the incubation mixture was removed and added to 100 μL of 9:1 acetonitrile:methanol containing the internal standard.
The mixture was centrifuged and a 100 μL aliquot of the supernatant was diluted in 1 mL of solvent C (0.1% Formic Acid in water). Then samples were analyzed for change between the ratio of compound to internal standard at time zero and 30 minutes by LC/MS (injected 10 μL).
Samples were analyzed for the starting compounds and potential metabolite/s by LC/MS using an internal standard and an ODS-C18 column with a flow rate of 0.25 ml/min.

[2] = system: mitochondrial fatty acid oxidation using palmitoyl CoA as substrate; experiment: Palmitoyl CoA oxidation in isolated rat heart mitochondria; assay type: biochemical; details: for Inhibition of mitochondrial fatty acid oxidation using palmitoyl CoA as substrate - % of Control, 100 μm (%): 100 μm compound, 15 min at 30° C.
Experimental: Rat heart mitochondria were isolated by the method of Nedergard and Cannon (Methods in Enzymol. 55, 3, 1979). Palmitoyl CoA oxidation—The Palmityl CoA oxidation was carried out in a total volume of 100 micro liters containing the following agents: 110 mM KCl, 33 mM Tris buffer at pH 8, 2 mM KPi, 2 mM MgCl2, 0.1 mM EDTA, 14.7 microM defatted BSA, 0.5 mM malic acid, 13 mM carnitine, 1 mM ADP, 52 micrograms of mitochondrial protein, and 16 microM 1-C14 palmitoyl CoA (Sp. Activity 60 mCi/mmole; 20 microCi/ml, using 5 microliters per assay). The compounds of this invention were added in a DMSO solution at the following concentrations: 100 microM, and 50 microM. In each assay, a DMSO control was used. After 15 min at 30° C., the enzymatic reaction was centrifuged (20,000 g for 1 min), and 70 microliters of the supernatant was added to an activated reverse phase silicic acid column (approximately 0.5 ml of silicic acid). The column was eluted with 2 ml of water, and 0.5 ml of the eluent was used for scintillation counting to determine the amount of C^14 trapped as C^14 bicarbonate ion.

[3] = Table 1, read-out: IC50 (μm), inhibition of mitochondrial fatty acid oxidation using palmitoyl CoA as substrate
[4] = Table IA, read-out: Effect on Palmitoyl CoA Oxidation (IC50)

Compound | percentage of parent drug remaining at the 30 minute time point ([1]; human liver S-9, 30 minutes at 37 C, average of five experiments) [%] | Inhibition of mitochondrial fatty acid oxidation using palmitoyl CoA as substrate - % of Control, 100 μm (%) [2] [%] | Liver S9 Stability Factor [1] | pIC50 [2, 3] | pIC50 [2, 4]
COc1ccccc1OCC(O)CN1CCN(CC(=O)Nc2c(C)cccc2C)CC1 (racemic) [ranolazine, (±)-N-(2,6-dimethylphenyl)-4-[2-hydroxy-3-(2-methoxyphenoxy)-propyl]-1-piperazineacetamide, reference compound] | 57 | – | – | – | –
Cc1cccc(C)c1NC(=O)CN1CCN(CC(O)COc2nc3ccccc3s2)CC1 (centres unmarked) [Compound 43, 2-{4-[3-(benzothiazol-2-yloxy)-2-hydroxy-propyl]-piperazin-1-yl}-N-(2,6-dimethylphenyl)acetamide] | – | 21 | 0.6 | – | –
Cc1nc2cc(OCC(O)CN3CCN(CC(=O)Nc4c(C)cccc4C)CC3)ccc2s1 (centres unmarked) [Compound 45, N-(2,6-dimethylphenyl)-2-{4-[2-hydroxy-3-(2-methyl-benzothiazol-5-yloxy)-propyl]-piperazin-1-yl}acetamide] | – | 87 | 0.8 | ~4.70 | 4.82
Cc1cccc(C)c1NC(=O)CN1CCN(CC(O)COc2cccc3[nH]c(C(N)=O)cc23)CC1 (centres unmarked) [Compound 46, 4-(3-{4-[(2,6-dimethylphenylcarbamoyl)-methyl]-piperazin-1-yl}-2-hydroxypropoxy)-1H-indole-2-carboxylic acid amide] | – | 61 | 1.1 | ~3.90 | –
Cc1cccc(C)c1NC(=O)CN1CCN(CC(O)COc2ccc3ncsc3c2)CC1 (centres unmarked) [Compound 47, 2-{4-[3-(benzothiazol-6-yloxy)2-hydroxy-propyl]-piperazin-1-yl}-N-(2,6-dimethylphenyl)-acetamide] | – | 70 | 1.5 | ~3.90 | –
Cc1nc2cc(OCC(O)CN3C(C)CN(CC(=O)Nc4c(C)cccc4C)CC3C)ccc2s1 (stereo not drawn) [Compound 52, N-(2,6-dimethylphenyl)-2-{4-[2-hydroxy-3-(2-methyl-benzothiazol-5-yloxy)-propyl]-3,5-cis dimethyl-piperazine-1-yl}acetamide] | – | 95 | 0.5 | ~6.00 | 6.15
Cc1cccc(C)c1NC(=O)CN1CCN(CC(O)COc2cnc3ccccc3n2)CC1 (centres unmarked) [Compound 70, N-(2,6-dimethylphenyl)-2-{4-[2-hydroxy-3-(quinoxalin-2-yloxy)-propyl]-piperazin-1-yl}acetamide] | – | – | 0.1 | – | –
Cc1cccc(C)c1NC(=O)CN1CCN(CC(O)COc2ccnc3ccccc23)CC1 (centres unmarked) [Compound 74, N-(2,6-dimethylphenyl)-2-{4-[2-hydroxy-3-(quinolin-4-yloxy)-propyl]-piperazin-1-yl}acetamide] | – | 12 | 1.0 | – | –
Cc1cccc(C)c1NC(=O)CN1CCN(CC(O)COc2cccc3cnccc23)CC1 (centres unmarked) [Compound 76, N-(2,6-dimethylphenyl)-2-{4-[2-hydroxy-3-(isoquinolin-5-yloxy)-propyl]-piperazin-1-yl}acetamide] | – | 26 | 0.8 | – | –
Cc1cccc(C)c1NC(=O)CN1CCN(CC(O)COc2ccc3ncccc3c2)CC1 (centres unmarked) [Compound 78, N-(2,6-dimethylphenyl)-2-{4-[2-hydroxy-3-(quinolin-6-yloxy)-propyl]-piperazin-1-yl}acetamide] | – | 42 | 0.6 | – | –
Cc1ccc2ccc(OCC(O)CN3CCN(CC(=O)Nc4c(C)cccc4C)CC3)cc2n1 (centres unmarked) [Compound 80, N-(2,6-dimethylphenyl)-2-{4-[2-hydroxy-3-(2-methyl-quinolin-7-yloxy)-propyl]-piperazin-1-yl}acetamide] | – | 22 | 0.5 | – | –
